The text below walks through data of patent US7951548B2, “IL-13 production inhibitor” (Takeda Pharmaceutical Company Limited, priority 2005, dated 2011).

Format in all cases: cell-based
One experiment has as its target T1, GPR34 (Homo sapiens, UniProt Q9UPC5).
T1 construct: expressed in transfected cells
The experiment in a line: DNA synthesis activity (tritium-labeled thymidine) of human GPR34-expressed CHO cells. The settings on record: serum-free medium, 16 hours. The protocol: The human GPR34-expressed CHO cells prepared by the procedure as described in REFERENCE EXAMPLE 1 were plated at a cell density of 20,000 cells/well on a 96-well plate charged with serum-free medium. The cells were allowed to stand for 4 hours, 0, 0.1, 0.3, 1 and 3 μM lysoPS was added thereto, respectively, followed by incubation for 16 hours. After 1 μCi/well of tritium-labeled thymidine (Amersham, TRK120) was added to achieve labeling for 4 hours, fixation was performed in 10% trichloroacetic acid. Solubilization in an aqueous sodium hydroxide solution was followed by neutralization in trichloroacetic acid to collect DNA with a cell harvester. The radioactivity on the filter was taken as DNA synthesis activity.

Experiment [1] has as its system rat primary culture microglial cells (PMGC). Kind of experiment: Expression of cytokine genes in activated PMGC (TaqMan PCR). The settings on record: lysoPS 5 μM, LPS 1 μg/ml, IFN-α 1 ng/ml. The protocol:
In order to examine the action of lysoPS on the activation of microglia, actions induced by the addition of lysoPS in PMGC activated by LPS stimulation was examined in the presence of IFN-α. PMGC, which was prepared from the brain of rat of one day old on the preceding day, was plated on a 24-well plate (Falcon 353047) at 50000 cells/well, and IFN-α (1 ng/ml, Biovision) was added 6 hours after. On the following day, lysoPS (5 μM) was added upon stimulation by LPS (1 μg/ml), and comparison was made between the presence and absence of lysoPS if cytokine production was affected. RNA was prepared as in the procedure described in EXAMPLE 4 for 2 and 8 hours after addition or without addition of LPS and lysoPS (5 μM). The sequencing information of the primers, probe and standard used for TaqMan are as described above. The cytokine production was compared by TaqMan PCR in terms of changes in expression levels of cytokine genes.
(Real-time PCR tracks product formation cycle by cycle.)

Experiment [2] has the same test system. The experiment in a line: Phosphorylation of ERK1/2 in PMGC. The settings on record: lysoPS.
In experiment [3] the test system is mouse bone marrow-derived mast cells. Kind of experiment: MAPK activation: phosphorylation of ERK1/2 in mouse bone marrow-derived mast cells (BMMC). The settings on record: BMMC. The method, then: BMMC was established by collecting bone marrow fluid from the femur of male BALB/c mouse (Japan SLC), rinsing in RPMI1640 (Nikken Bio Medical Laboratory) and then incubating in a medium (RPMI1640, 50% WEHI-3 culture supernatant, 10% FBS (GIBCO), penicillin/streptomycin (BIOWHITTAKER), Non-Essential amino acids (GIBCO)) for 4 weeks. The cells were incubated in a CO2 incubator immediately before assay. Pertussis toxin (hereinafter PTX) was added to the cells in a final concentration of 0.1 μg/mL 4 hours before assay. BMMC was washed in ice-chilled assay buffer (Tyrode Buffer, 0.01% fatty acid free-BSA (SIGMA), 1 mM CaCl2, 1 mM MgCl2), and suspended in 2×10^6 cells/ml. The suspension was dispensed in a 1.5 mL tube followed by preincubation for 15 minutes at 37° C. The lysoPS solution and A23187 solution (Wako Pure Chemicals) as a positive control were added in equimolar amounts. After incubation at 37° C., the reaction was terminated by quenching. The cells were precipitated by centrifugation and the assay buffer was aspirated. After washing in PBS, 1×SDS sample buffer/DTT was added to the cells to lyse the cells. After ultrasonication for 15 seconds, the sample was heated at 95° C. for 5 minutes followed by quenching.
Detection by SDS-PAGE and western blotting were performed as follows. After separation using 10% Bis-Tris gel (Invitrogen), the gel was transferred to Immuno-Blot PVDF Membrane (BIO-RAD). The membrane was blocked with Block Ace (Dai-Nippon Pharmaceutical) and incubated at 4° C. overnight with a primary antibody (Phospho-p42/p44 MAP Kinase (Thr202/Thr204) Antibody (CST) or p42/p44 MAP Kinase Antibody (CST)) and further incubated at room temperature for an hour using a secondary antibody (Anti-rabbit IgG (CST)). The membrane after the antibody reaction was visualized by chemiluminescence using ECL PLUS (Amersham Biosciences). Detection and image analysis were performed using LAS1000 (FUJI FILM).

Experiment [4] concerns human mast cell line LAD2 cells. Kind of experiment: Leukotriene production of human mast cell line LAD2 cells (Leukotriene EIA). The method, then: The human mast cell line LAD2 cells obtained from National Institute of Health in US were subjected to passive sensitization overnight using DNP IgE (Yamasa, 1 μg/ml), washed and plated on a 96-well plate in a final cell concentration of 100,000 cells/well in the reaction solution. LAD2 cells were stimulated by lysoPS and DNP-BSA and the plate was centrifuged 20 minutes after. The leukotriene in the supernatant of the reaction solution was assayed using Leukotriene EIA Kit (Amersham).

T1 sequence (Q9UPC5 whole entry): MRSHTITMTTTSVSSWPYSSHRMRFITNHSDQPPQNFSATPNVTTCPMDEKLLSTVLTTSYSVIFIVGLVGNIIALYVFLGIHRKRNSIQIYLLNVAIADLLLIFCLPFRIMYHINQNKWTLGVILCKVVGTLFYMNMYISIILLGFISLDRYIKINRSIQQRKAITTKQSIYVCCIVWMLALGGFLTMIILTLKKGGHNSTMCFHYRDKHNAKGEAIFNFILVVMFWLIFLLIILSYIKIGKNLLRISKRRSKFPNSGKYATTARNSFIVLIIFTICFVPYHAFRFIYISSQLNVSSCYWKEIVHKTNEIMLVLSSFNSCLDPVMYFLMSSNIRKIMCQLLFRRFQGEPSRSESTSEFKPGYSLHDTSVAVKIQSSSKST

As to lysophosphatidylserine [lysoPS], the “DNA synthesis activity, increase” value on GPR34 (0.1 μM lysoPS) turned out to be 1.1 times; at GPR34 (0.3 μM lysoPS), 1.2 times; at GPR34 (1 μM lysoPS) it was 2.0 times; on GPR34 (3 μM lysoPS) it was 3.2 times. Moreover, the “expression of inflammatory cytokine IL-6” value in experiment [1] (2 hours after the addition) is recorded as “tendency to suppress the expression”. For the same substance, the “expression of inflammatory cytokine TNF-α” value in experiment [1] (2 hours after the addition) is given as “tendency to suppress the expression”. Besides, in experiment [1] (8 hours after), the “expression of anti-inflammatory cytokine IL-10” value is on record as “tendency to increase its expression”. Besides, in experiment [2], the “phosphorylation of ERK1/2” value is “also noted in PMGC”. For the same substance, the “phosphorylation of ERK1/2 30 minutes after the stimulation” value in experiment [3] is “the phosphorylation was observed”. For the same substance, in experiment [3], the “time of maximum response of ERK1/2 phosphorylation after the stimulation” value is listed as “about 2 minutes”. Also, the leukotriene production in experiment [4] (300 ng/ml DNP-BSA with 0.1 μM lysoPS added simultaneously) came to 382 pg/mL; in experiment [4] (300 ng/ml DNP-BSA with 0.3 μM lysoPS added simultaneously), 529 pg/mL; in experiment [4] (300 ng/ml DNP-BSA with 1 μM lysoPS added simultaneously), 638 pg/mL; in experiment [4] (300 ng/ml DNP-BSA with 3 μM lysoPS added simultaneously) it was 750 pg/mL; in experiment [4] (300 ng/ml DNP-BSA with 10 μM lysoPS added simultaneously) it was 792 pg/mL.
